Patent US8258176B2, “Dithiolopyrrolone compounds, the preparation and the use thereof” (Shanghai Institute of Pharmaceutical Industry, priority 2007, dated 2012)
Like-named read-outs stand apart in the source and are kept apart here.

B1: G-CSF: granulocyte colony-stimulating factor, SAIGELI, Shanghai Sunway Biotech Co., Ltd.; positive control (protein, UniProt P09919 31-207, looked up)
Granulocyte …: TPLGPASSLPQSFLLKCLEQVRKIQGDGAALQEKLVSECATYKLCHPEELVLLGHSLGIPWAPLSSCPSQALQLAGCLSQLHSGLFLYQGLLQALEGISPELGPTLDTLQLDVADFATTIWQQMEELGMAPALQPTQGAMPAFASAFQRRAGGVLVASHLQSFLEVSYRVLRHLAQP

What was measured:
[1] = system: peripheral blood leukocytes of model mice; conditions: for NE % (percentage of neutrophils in the total number of white blood cells) / WBC count: CTX model mice
Procedure: Sample: series of dithiolopyrrolone compounds were dissolved in 0.5% CMC—Na to be suspension after grinding with Tween (less than 4% usage).
Cyclophosphamide for Injection (CTX), Shanghai Hualian Pharmaceutical Co., Ltd., batch number: 050606, prepared of being dissolved in saline.
SAIGELI (G-CSF), Shanghai Sunway Biotech Co., Ltd., batch number: 051001
Animal blood analyzer, model: HEMAVET950 • 2. Method
40 BALB/c mice, were randomly divided into five groups, blank control group, positive control (G-CSF) group (22.5 ug/kg), and two dithiolopyrrolone derivatives groups (compounds 001 and 004, 20 mg/kg), CTX model group (100 mg/kg), respectively with 8 mice in each group. rThe blank control group wasn't treated in any way, the other four groups were treated with CTX intraperitoneal injection, 100 mg/kg, once a day. […] G-CSF group was given G-CSF (22.5 ug/kg) subcutaneously once a day, one day after the completing of the injection of CTX. Dithiolopyrrolone derivatives groups were administered with dithiolopyrrolone derivatives (20 mg/kg), through gavaging once a day (0.5 ml), one day after the completing of the injection of CTX. The mice of model group and blank control group were administered with an equivalent 0.5% CMC—Na solution through gavaging.
Blood specimens were collected according to conventional method via the mice orbital vein, on the 0, 4, 6, 8 day respectively, when the day of administering CTX is set as the first day, then the peripheral blood routine test was carried out, and the effect of series of dithiolopyrrolone compounds on peripheral blood leukocytes of normal mice was analyzed. • 3. Results

[2] = system: bone marrow granulocyte series; test: Bone marrow smear microscopic examination of CTX model mice; format: in vivo, BALB/c mice; conditions: bone marrow smear after treatment
[3] = system: peripheral blood leukocytes of normal mice; test: Effects on peripheral blood leukocytes of normal mice (peripheral blood routine test); format: in vivo; conditions: G-CSF 22.5 ug/kg sc once a day
Description: Animal hematology analyzer, model: HEMAVET950 • 2. Method
The mice were divided into blank control group, positive control group and the dithiolopyrrolone series of compounds group, there are 10 mice in each group.

[4] = day 0 (before CTX 100 mg/kg ip x 3 days)
[5] = day 4, CTX 100 mg/kg ip days 1-3, compounds 20 mg/kg ig, G-CSF 22.5 ug/kg sc once a day from one day after CTX
[6] = day 6, CTX 100 mg/kg ip days 1-3, compounds 20 mg/kg ig, G-CSF 22.5 ug/kg sc once a day from one day after CTX
[7] = day 8, CTX 100 mg/kg ip days 1-3, compounds 20 mg/kg ig, G-CSF 22.5 ug/kg sc once a day from one day after CTX
[8] = day 0 (before administration), compounds 20 mg/kg ig once a day
[9] = day 3, compounds 20 mg/kg ig once a day
[10] = day 5, compounds 20 mg/kg ig once a day

Molecule	total number of white blood cells and percentage of neutrophils after CTX ([1]; CTX 100 mg/kg ip once a day, after three days of administration)	NE % (percentage of neutrophils in the total number of white blood cells) [1, 4] [%]	WBC count [1, 4] [L⁻¹]	NE % (percentage of neutrophils in the total number of white blood cells) [1, 5] [%]	WBC count [1, 5] [L⁻¹]	NE % (percentage of neutrophils in the total number of white blood cells) [1, 6] [%]	WBC count [1, 6] [L⁻¹]	NE % (percentage of neutrophils in the total number of white blood cells) [1, 7] [%]	WBC count [1, 7] [L⁻¹]	granulocyte series in bone marrow smear (microscopic examination) [2]	NE % (percentage of neutrophils in the total number of white blood cells) [3, 8] [%]	WBC count [3, 8] [L⁻¹]	NE % (percentage of neutrophils in the total number of white blood cells) [3, 9] [%]	WBC count [3, 9] [L⁻¹]	NE % (percentage of neutrophils in the total number of white blood cells) [3, 10] [%]	WBC count [3, 10] [L⁻¹]
O=P1(N(CCCl)CCCl)NCCCO1 (stereo not shown) [CTX, Cyclophosphamide, reference compound]	significantly decreased	28.46	5.88e+09	3.33	1.34e+09	6.7	1.2e+09	38.32	5.7e+09	severely inhibited						
COc1ccc(-n2c3cssc-3c(NC(=O)Oc3ccccc3)c2=O)c(OC)c1 [compound 001]		27.32	5.98e+09	2.48	1.21e+09	42.71	2.75e+09	76.84	1.844e+10	significant hyperplasia and speeding up of the differentiation and maturation	33.73	7.89e+09	67.44	1.824e+10	72.13	2.496e+10
CCOC(=O)Nc1c2sscc-2n(-c2ccc(OC)cc2OC)c1=O [compound 004]		18.65	5.86e+09	4.34	1.11e+09	36.47	1.42e+09	87.62	1.528e+10	significant hyperplasia and speeding up of the differentiation and maturation	31.56	7.65e+09	56.36	1.336e+10	78.24	1.866e+10
B1		30.34	5.92e+09	4.58	1.14e+09	30.07	1.84e+09	59.68	1.54e+10	significant hyperplasia and speeding up of the differentiation and maturation	25.39	6.74e+09	57.86	1.748e+10	60.68	1.922e+10
